# Assay results taken from PubChem BioAssay AID2060883 (Molecular Pharmacology Branch, DTP, NCI, 2025).
# Values joined by “and” are separate entries in the source; they are usually repeats but may differ in a detail not shown here. Identical values can stand only once.
# Test system: 843782-103-R-J1-PDC complex spheroid viability
# Assay: Anticancer human tumor 843782-103-R-J1-PDC patient-derived lung adenocarcinoma cell line growth inhibition [RAS]
# Details: for viability, T/C: stronger effect = lower value
# In short: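 Tumour cells grown as complex spheroids with HUVEC endothelial cells and mesenchymal stem cells, treated with RAS pathway inhibitor combinations. Each agent spans half-log steps from near clinical Cmax, or 10 microM where Cmax is unknown.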
# [1] = curve of first compound, second compound 0.000949 µM
# [2] = curve of first compound, second compound 0.003 µM
# [3] = curve of first compound, second compound 0.00949 µM
# [4] = curve of first compound, second compound 0.03 µM
# [5] = curve of first compound, second compound 0.0949 µM
# [6] = curve of first compound, second compound 0.3 µM
# [7] = second compound 0.000949 µM, first compound 0.0316 µM
# [8] = second compound 0.000949 µM, first compound 0.1 µM
# [9] = second compound 0.000949 µM, first compound 0.316 µM
# [10] = second compound 0.000949 µM, first compound 1 µM
# [11] = second compound 0.000949 µM, first compound 3.16 µM
# [12] = second compound 0.000949 µM, first compound 10 µM
# [13] = second compound 0.003 µM, first compound 0.0316 µM
# [14] = second compound 0.003 µM, first compound 0.1 µM
# [15] = second compound 0.003 µM, first compound 0.316 µM
# [16] = second compound 0.003 µM, first compound 1 µM
# [17] = second compound 0.003 µM, first compound 3.16 µM
# [18] = second compound 0.003 µM, first compound 10 µM
# [19] = second compound 0.00949 µM, first compound 0.0316 µM
# [20] = second compound 0.00949 µM, first compound 0.1 µM
# [21] = second compound 0.00949 µM, first compound 0.316 µM
# [22] = second compound 0.00949 µM, first compound 1 µM
# [23] = second compound 0.00949 µM, first compound 3.16 µM
# [24] = second compound 0.00949 µM, first compound 10 µM
# [25] = second compound 0.03 µM, first compound 0.0316 µM
# [26] = second compound 0.03 µM, first compound 0.1 µM
# [27] = second compound 0.03 µM, first compound 0.316 µM
# [28] = second compound 0.03 µM, first compound 1 µM
# [29] = second compound 0.03 µM, first compound 3.16 µM
# [30] = second compound 0.03 µM, first compound 10 µM
# [31] = second compound 0.0949 µM, first compound 0.0316 µM
# [32] = second compound 0.0949 µM, first compound 0.1 µM
# [33] = second compound 0.0949 µM, first compound 0.316 µM
# [34] = second compound 0.0949 µM, first compound 1 µM
# [35] = second compound 0.0949 µM, first compound 3.16 µM
# [36] = second compound 0.0949 µM, first compound 10 µM
# [37] = second compound 0.3 µM, first compound 0.0316 µM
# [38] = second compound 0.3 µM, first compound 0.1 µM
# [39] = second compound 0.3 µM, first compound 0.316 µM
# [40] = second compound 0.3 µM, first compound 1 µM
# [41] = second compound 0.3 µM, first compound 3.16 µM
# [42] = second compound 0.3 µM, first compound 10 µM
# 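Also: viability read after seven days of compound exposure.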
smiles,measurement,setting,value
NC1c2ccccc2OC12CCN(c1cnc3c(N4CCCc5ncccc54)n[nH]c3n1)CC2 (stereo not drawn) + CCn1c(-c2cc(N3CCN(C)CC3)cnc2C(C)OC)c2c3cc(ccc31)-c1csc(n1)CC(NC(=O)C1CC1C)C(=O)N1CCCC(N1)C(=O)OCC(C)(C)C2,IC50,[1],< 31.6 nM
same,IC50,[2],< 31.6 nM
same,IC50,[3],< 31.6 nM
same,IC50,[4],< 31.6 nM
same,IC50,[5],< 31.6 nM
same,IC50,[6],< 31.6 nM
same,"viability, T/C",[7],39.3%
same,"viability, T/C",[8],25.7%
same,"viability, T/C",[9],20%
same,"viability, T/C",[10],19.5%
same,"viability, T/C",[11],16.9%
same,"viability, T/C",[12],12.2%
same,"viability, T/C",[13],27.1%
same,"viability, T/C",[14],19.2%
same,"viability, T/C",[15],17.9%
same,"viability, T/C",[16],16.2%
same,"viability, T/C",[17],13.6%
same,"viability, T/C",[18],10.3%
same,"viability, T/C",[19],24.2%
same,"viability, T/C",[20],15.6%
same,"viability, T/C",[21],17%
same,"viability, T/C",[22],15%
same,"viability, T/C",[23],12.8%
same,"viability, T/C",[24],8.86%
same,"viability, T/C",[25],16.8%
same,"viability, T/C",[26],14.8%
same,"viability, T/C",[27],12.6%
same,"viability, T/C",[28],12.7%
same,"viability, T/C",[29],14.2%
same,"viability, T/C",[30],9.33%
same,"viability, T/C",[31],18.1%
same,"viability, T/C",[32],14%
same,"viability, T/C",[33],15.2%
same,"viability, T/C",[34],13.8%
same,"viability, T/C",[35],12.2%
same,"viability, T/C",[36],9.38%
same,"viability, T/C",[37],13.6%
same,"viability, T/C",[38],13.6%
same,"viability, T/C",[39],13.6%
same,"viability, T/C",[40],12.8%
same,"viability, T/C",[41],11.7%
same,"viability, T/C",[42],7.8%
CC1(C)CCC(Nc2ncc(C(F)(F)F)c(-c3c[nH]c4c(P(C)(C)=O)c(C#N)ccc34)n2)CN1 (stereo not drawn) + C#Cc1c(F)ccc2cc(O)cc(-c3ncc4c(N5CC6CCC(C5)N6)nc(OCC56CCCN5CC(F)C6)nc4c3F)c12,IC50,"curve of first compound, second compound 0.0316 µM",22.6 nM
same,IC50,"curve of first compound, second compound 0.1 µM",17.4 nM
same,IC50,"curve of first compound, second compound 0.316 µM",20.1 nM
same,IC50,"curve of first compound, second compound 1 µM",7.9 nM
same,IC50,"curve of first compound, second compound 3.16 µM",5.68 nM
same,IC50,"curve of first compound, second compound 10 µM",0.949 nM
same,"viability, T/C","second compound 0.0316 µM, first compound 0.000949 µM",102%
same,"viability, T/C","second compound 0.0316 µM, first compound 0.003 µM",93.6%
same,"viability, T/C","second compound 0.0316 µM, first compound 0.00949 µM",72.1%
same,"viability, T/C","second compound 0.0316 µM, first compound 0.03 µM",44.9%
same,"viability, T/C","second compound 0.0316 µM, first compound 0.0949 µM",21.1%
same,"viability, T/C","second compound 0.0316 µM, first compound 0.3 µM",22.7%
same,"viability, T/C","second compound 0.1 µM, first compound 0.000949 µM",103%
same,"viability, T/C","second compound 0.1 µM, first compound 0.003 µM",88.1%
same,"viability, T/C","second compound 0.1 µM, first compound 0.00949 µM",58.6%
same,"viability, T/C","second compound 0.1 µM, first compound 0.03 µM",42.5%
same,"viability, T/C","second compound 0.1 µM, first compound 0.0949 µM",26.8%
same,"viability, T/C","second compound 0.1 µM, first compound 0.3 µM",23.1%
same,"viability, T/C","second compound 0.316 µM, first compound 0.000949 µM",101%
same,"viability, T/C","second compound 0.316 µM, first compound 0.003 µM",76.2%
same,"viability, T/C","second compound 0.316 µM, first compound 0.00949 µM",58.1%
same,"viability, T/C","second compound 0.316 µM, first compound 0.03 µM",51.5%
same,"viability, T/C","second compound 0.316 µM, first compound 0.0949 µM",25.6%
same,"viability, T/C","second compound 0.316 µM, first compound 0.3 µM",24.6%
same,"viability, T/C","second compound 1 µM, first compound 0.000949 µM",88.5%
same,"viability, T/C","second compound 1 µM, first compound 0.003 µM",69%
same,"viability, T/C","second compound 1 µM, first compound 0.00949 µM",46.2%
same,"viability, T/C","second compound 1 µM, first compound 0.03 µM",30.9%
same,"viability, T/C","second compound 1 µM, first compound 0.0949 µM",26.4%
same,"viability, T/C","second compound 1 µM, first compound 0.3 µM",20.5%
same,"viability, T/C","second compound 3.16 µM, first compound 0.000949 µM",61%
same,"viability, T/C","second compound 3.16 µM, first compound 0.003 µM",57.4%
same,"viability, T/C","second compound 3.16 µM, first compound 0.00949 µM",44%
same,"viability, T/C","second compound 3.16 µM, first compound 0.03 µM",29.2%
same,"viability, T/C","second compound 3.16 µM, first compound 0.0949 µM",24.9%
same,"viability, T/C","second compound 3.16 µM, first compound 0.3 µM",24.6%
same,"viability, T/C","second compound 10 µM, first compound 0.000949 µM",46.6%
same,"viability, T/C","second compound 10 µM, first compound 0.003 µM",44.9%
same,"viability, T/C","second compound 10 µM, first compound 0.00949 µM",37.4%
same,"viability, T/C","second compound 10 µM, first compound 0.03 µM",59.2%
same,"viability, T/C","second compound 10 µM, first compound 0.0949 µM",26%
same,"viability, T/C","second compound 10 µM, first compound 0.3 µM",21.8%
CC1(C)CCC(Nc2ncc(C(F)(F)F)c(-c3c[nH]c4c(P(C)(C)=O)c(C#N)ccc34)n2)CN1 (stereo not drawn),"viability, T/C",compound 0.000949 µM,107% (2×) and 108% and 102%
same,"viability, T/C",compound 0.003 µM,93.6% [middle of 4 runs]
same,"viability, T/C",compound 0.00949 µM,58.3% [middle of 4 runs]
same,"viability, T/C",compound 0.0949 µM,22.4% [middle of 4 runs]
same,"viability, T/C",compound 0.3 µM,19.5% [middle of 4 runs]
same,IC50,curve of compound,13.6 nM [middle of 4 runs]
Nc1ccn(C2OC(CO)C(O)C2(F)F)c(=O)n1 (stereo not drawn),"viability, T/C",compound 0.00316 µM,107% [middle of 4 runs]
same,"viability, T/C",compound 0.01 µM,101% [middle of 4 runs]
same,"viability, T/C",compound 0.1 µM,3.52% [middle of 4 runs]
same,"viability, T/C",compound 0.316 µM,2.19% [middle of 4 runs]
same,"viability, T/C",compound 1 µM,2.92% [middle of 4 runs]
same,IC50,curve of compound,34.1 nM [middle of 4 runs]
C[C@@H](NC(=O)c1ncnc(N)c1Cl)c1ncc(C(=O)Nc2cc(C(F)(F)F)c(Cl)cn2)s1 + CCn1c(-c2cccnc2C(C)OC)c2c3cc(ccc31)N1CCOC(CC(NC(=O)C(C(C)C)N(C)C(=O)C3(F)CCN(C(=O)C#CC(C)(C)N(C)C)CC3)C(=O)N3CCCC(N3)C(=O)OCC(C)(C)C2)C1,IC50,[1],> 10000 nM
same,IC50,[2],> 10000 nM
same,IC50,[3],> 10000 nM
same,IC50,[4],> 10000 nM
same,IC50,[5],> 10000 nM
same,IC50,[6],> 10000 nM
same,"viability, T/C",[7],83.6%
same,"viability, T/C",[8],84.5%
same,"viability, T/C",[9],81.7%
same,"viability, T/C",[10],79.2%
same,"viability, T/C",[11],78.3%
same,"viability, T/C",[12],79.2%
same,"viability, T/C",[13],77.5%
same,"viability, T/C",[14],80.8%
same,"viability, T/C",[15],80.2%
same,"viability, T/C",[16],75.2%
same,"viability, T/C",[17],89.1%
same,"viability, T/C",[18],82.1%
same,"viability, T/C",[19],76.6%
same,"viability, T/C",[20],88.9%
same,"viability, T/C",[21],84.4%
same,"viability, T/C",[22],80.3%
same,"viability, T/C",[23],78.6%
same,"viability, T/C",[24],77.5%
same,"viability, T/C",[25],88.5%
same,"viability, T/C",[26],83.4%
same,"viability, T/C",[27],81.4%
same,"viability, T/C",[28],79.7%
same,"viability, T/C",[29],95.9%
same,"viability, T/C",[30],68.2%
same,"viability, T/C",[31],81.2%
same,"viability, T/C",[32],86.1%
same,"viability, T/C",[33],81.5%
same,"viability, T/C",[34],79%
same,"viability, T/C",[35],88.8%
same,"viability, T/C",[36],75.3%
same,"viability, T/C",[37],75.7%
same,"viability, T/C",[38],82.7%
same,"viability, T/C",[39],77.9%
same,"viability, T/C",[40],75.4%
same,"viability, T/C",[41],80.1%
same,"viability, T/C",[42],76.7%
